# Results: ChEMBL document CHEMBL1141520, “New cytotoxic saturated and unsaturated cyclohexanones from Anthemis maritima” (Bioorg Med Chem Lett, 2008)
# Tests used:
# Format in all cases: functional, cell-based
# HCT-116 = test: Antiproliferative activity against human HCT116 cells after 72 hrs by WST1 based assay; settings: HCT-116, 72 h
# Caco-2 = test: Antiproliferative activity against human CaCo2 cells after 72 hrs by WST1 based assay; settings: Caco-2, 72 h
# MCF7 = test: Antiproliferative activity against human MCF7 cells after 72 hrs by WST1 based assay; settings: MCF7, 72 h
# HL-60 = test: Antiproliferative activity against human HL60 cells after 72 hrs by WST1 based assay; settings: HL-60, 72 h
# U-937 = test: Antiproliferative activity against human U937 cells after 72 hrs by WST1 based assay; settings: U-937, 72 h
# Jurkat = test: Antiproliferative activity against human Jurkat T cells after 72 hrs by WST1 based assay
Compound,IC50 (HCT-116) [µM],IC50 (Caco-2) [µM],IC50 (MCF7) [µM],IC50 (HL-60) [µM],IC50 (U-937) [µM],IC50 (Jurkat) [µM]
C=C1C(=O)O[C@@H]2C3O[C@]3(C)CC/C=C(\C)CC[C@@H]12 (stereo partly drawn),5.9,10.4,9.4,0.9,2.2,1.9
CC(C)=CCCC(C)(O)[C@H]1CC(=O)C(CO)=C[C@@H]1O (stereo partly drawn) [ANTHEMINONE A],15,11,21,7.6,6.2,9
C=C1C(=O)C[C@@H](C(C)(O)CCC=C(C)C)[C@H](O)[C@H]1O (stereo partly drawn) [ANTHEMINONE C],19,9.4,15,3.2,7.4,8.4
